Data from ChEMBL document CHEMBL1201862, “PubChem BioAssay data set” (2004).
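Tested at 5 concentrations; 48 h exposure; 96-well plates; endpoints linearly interpolated, else capped at highest concentration. Abbreviation: GI50, concentration required for 50% inhibition of growth.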 The source made the active and inactive calls. Rule as the data show it: active = GI50 up to about 1.1 µM and inactive = higher.

Legend:
Assay in all cases: NCI-60 cell line screen, 48 h
M19-MEL = test system: M19-MEL
RXF 631 = test system: RXF 631
DMS-114 = test system: DMS-114
LXFL 529 = test system: LXFL 529
HOP-18 = test system: HOP-18
DMS-273 = test system: DMS-273
DLD-1 = test system: DLD-1
KM-20L2 = test system: KM-20L2
XF498 = test system: XF498

Structure (SMILES)	GI50 (M19-MEL)	GI50 (RXF 631)	GI50 (DMS-114)	GI50 (LXFL 529)	GI50 (HOP-18)	GI50 (DMS-273)	GI50 (DLD-1)	GI50 (KM-20L2)	GI50 (XF498)
Nc1nc(-c2ccccc2)cc(-c2ccccc2O)n1	43.1 µM (inactive)	34.1 µM (inactive)	35.2 µM (inactive)	30.8 µM (inactive)	> 100 µM (inactive)	32 µM (inactive)	23.9 µM (inactive)	30.2 µM (inactive)	> 100 µM (inactive)
CCCC/C=C1/CCC(CN(C)C)C1=O (stereo unspecified)	1.41 µM (inactive)	1.65 µM (inactive)	1.29 µM (inactive)	0.625 µM (active)	2.22 µM (inactive)	2.71 µM (inactive)	0.863 µM (active)	2.54 µM (inactive)	
CCc1ccccc1NC(=O)/C(=N/O)C(C)=O	> 100 µM (inactive)	> 100 µM (inactive)	> 100 µM (inactive)	> 100 µM (inactive)	> 100 µM (inactive)	> 100 µM (inactive)	> 100 µM (inactive)	> 100 µM (inactive)	> 100 µM (inactive)
CC1CCCP(=O)(c2ccccc2)CCC1 (stereo unspecified)	> 100 µM (inactive)	> 100 µM (inactive)	> 100 µM (inactive)	> 100 µM (inactive)	69 µM (inactive)	> 100 µM (inactive)	> 100 µM (inactive)	> 100 µM (inactive)	> 100 µM (inactive)
O=C(Cc1nc2ccccc2s1)C(=O)Nc1cccc(Cl)c1	> 100 µM (inactive)	> 100 µM (inactive)	> 100 µM (inactive)	> 100 µM (inactive)		> 100 µM (inactive)	> 100 µM (inactive)	> 100 µM (inactive)	> 100 µM (inactive)
COc1cc(CCCC(O)COc2cccc3c2C2(O)CCCCCC32)cc(OC)c1 (stereo unspecified)	17 µM (inactive)		11.4 µM (inactive)	16.5 µM (inactive)	16 µM (inactive)	20.5 µM (inactive)	20.1 µM (inactive)	14.1 µM (inactive)	19.9 µM (inactive)
Cc1cccc(C)c1NC(=O)C1C(=O)N(c2c(C)cccc2C)C(=O)/C1=N\N (stereo unspecified)	> 100 µM (inactive)	> 100 µM (inactive)		> 100 µM (inactive)	> 100 µM (inactive)	> 100 µM (inactive)	> 100 µM (inactive)	> 100 µM (inactive)	
N#CC1(Cc2ccccc2[N+](=O)[O-])c2ccccc2C2C(N1C(=O)c1ccccc1)C2(Cl)Cl (stereo unspecified)	> 100 µM (inactive)		> 100 µM (inactive)	> 100 µM (inactive)	> 100 µM (inactive)	28.2 µM (inactive)	3.6 µM (inactive)	7.19 µM (inactive)	
COc1cccc(NC(=O)CC(=O)N2NC(C)C(/N=N/c3cccc(C(=O)O)c3)C2=O)c1 (stereo unspecified)	> 100 µM (inactive)	> 100 µM (inactive)	> 100 µM (inactive)	> 100 µM (inactive)	17.9 µM (inactive)	> 100 µM (inactive)	> 100 µM (inactive)	> 100 µM (inactive)	
Cc1nc2sccn2c1C(=O)NC(=O)Nc1ccc(Cl)cc1	> 100 µM (inactive)		50.5 µM (inactive)	> 100 µM (inactive)		74.1 µM (inactive)	> 100 µM (inactive)	> 100 µM (inactive)	19.2 µM (inactive)
CN(CN1C(=O)C2Cc3ccccc3CN2C1=O)c1ccccn1 (stereo unspecified)	> 100 µM (inactive)		> 100 µM (inactive)	> 100 µM (inactive)		> 100 µM (inactive)	> 100 µM (inactive)	> 100 µM (inactive)	> 100 µM (inactive)
CCOC(=N)CC(=O)NC(C)c1ccccc1 (stereo unspecified)	> 100 µM (inactive)	> 100 µM (inactive)		> 100 µM (inactive)	> 100 µM (inactive)	> 100 µM (inactive)	> 100 µM (inactive)	> 100 µM (inactive)	> 100 µM (inactive)
CC(=O)OCC1OC(OC2C(COC(C)=O)OC(Sc3ccccc3C)C(OC(C)=O)C2OC(C)=O)C(OC(C)=O)C(OC(C)=O)C1OC(C)=O (stereo unspecified)	> 100 µM (inactive)		> 100 µM (inactive)	> 100 µM (inactive)	> 100 µM (inactive)	> 100 µM (inactive)	> 100 µM (inactive)	> 100 µM (inactive)	
N=C(c1ccccc1)N(c1ccccc1)c1ccccc1	> 100 µM (inactive)			21.6 µM (inactive)	0.0415 µM (active)	42.5 µM (inactive)	63.5 µM (inactive)	> 100 µM (inactive)	
CCOC(=O)/C(C(C)=O)=C1/N[C@H](C(=O)OCC)CS1	> 100 µM (inactive)	> 100 µM (inactive)		> 100 µM (inactive)	> 100 µM (inactive)		> 100 µM (inactive)	> 100 µM (inactive)	> 100 µM (inactive)
CC1=CC2CC(C)=C(CC[C@]3(C)CC[C@H]([C@@H](C)C(=O)O)OO3)C(C)(C)C2CC1 (stereo partly specified)	1.63 µM (inactive)	1.48 µM (inactive)	0.376 µM (active)	0.193 µM (active)	0.158 µM (active)	0.528 µM (active)	0.201 µM (active)	1.29 µM (inactive)	
CC(=O)O[C@@]1(C)[C@@H](C)C(=O)O[C@@H]2CCN3CC=C(COC(=O)[C@]1(C)O)[C@H]23	> 100 µM (inactive)		> 100 µM (inactive)	> 100 µM (inactive)		> 100 µM (inactive)	> 100 µM (inactive)	> 100 µM (inactive)	
O=CC1=CCCC2(C1)OCCO2	> 100 µM (inactive)	> 100 µM (inactive)	> 100 µM (inactive)	> 100 µM (inactive)		> 100 µM (inactive)	> 100 µM (inactive)		> 100 µM (inactive)
CC1(C)N=C(c2ccccn2)C(c2ccccn2)=NC1(C)C	> 100 µM (inactive)	> 100 µM (inactive)	> 100 µM (inactive)	> 100 µM (inactive)		> 100 µM (inactive)	> 100 µM (inactive)	> 100 µM (inactive)	> 100 µM (inactive)
CCOC(=N)CC(=O)Nc1cccc(Cl)c1	> 100 µM (inactive)	> 100 µM (inactive)		> 100 µM (inactive)		> 100 µM (inactive)	> 100 µM (inactive)	> 100 µM (inactive)	> 100 µM (inactive)
COc1ccccc1NC(=O)CC(=O)N1N=C(c2ccccc2)C(/N=N/c2ccc(Cl)cc2)C1=O (stereo unspecified)	57.1 µM (inactive)	44.1 µM (inactive)	70.1 µM (inactive)	47.6 µM (inactive)		34.8 µM (inactive)	49.7 µM (inactive)	71.8 µM (inactive)	38.5 µM (inactive)
COc1cccc2nc3c(C(=O)NCCN(C)C)cccc3nc12	8.07 µM (inactive)	10.8 µM (inactive)	8.07 µM (inactive)	11.1 µM (inactive)	29.5 µM (inactive)	7.36 µM (inactive)	5.68 µM (inactive)	8.38 µM (inactive)	0.986 µM (active)
NC(=O)C(c1ccccc1)N1CCOCC1 (stereo unspecified)	> 100 µM (inactive)		> 100 µM (inactive)	> 100 µM (inactive)	> 100 µM (inactive)	> 100 µM (inactive)	> 100 µM (inactive)	> 100 µM (inactive)	
[N-]=[N+]=C1C(=O)C2CC3CC1CC2C3 (stereo unspecified)	> 100 µM (inactive)	> 100 µM (inactive)	> 100 µM (inactive)	> 100 µM (inactive)	> 100 µM (inactive)	> 100 µM (inactive)	> 100 µM (inactive)	> 100 µM (inactive)	
CC1=C(C(=O)Nc2ccccc2C)C(c2ccccc2)C(C(=O)Nc2ccccc2C)=C(C)N1	37.2 µM (inactive)		30.4 µM (inactive)	30.5 µM (inactive)	36.6 µM (inactive)	49.5 µM (inactive)	41 µM (inactive)	42.2 µM (inactive)	23.1 µM (inactive)
COC(=O)[C@]12CCC(C)[C@H](C)[C@H]1C1=CCC3[C@@]4(C)CC[C@H](OC(C)=O)C(C)(C)C4CC[C@@]3(C)C1(C)C(O)C2 (stereo partly specified)	> 100 µM (inactive)		61.7 µM (inactive)	77.3 µM (inactive)	> 100 µM (inactive)	> 100 µM (inactive)	> 100 µM (inactive)	> 100 µM (inactive)	27.9 µM (inactive)
CC[C@@]1(O)C(=O)OCc2c1cc1n(c2=O)Cc2cc3cc(O)ccc3nc2-1 [HYDROXYCAMPTOTHECIN]	0.0513 µM (active)		0.0136 µM (active)	0.15 µM (active)	0.109 µM (active)		1.2 µM (inactive)	0.0834 µM (active)	0.0262 µM (active)
